Results published in patent US11006631B2, “Substituted pyrimidinyloxy pyridine derivatives as herbicides” (FMC Corporation, priority 2015, dated 2021).

Key:
Assay type in all cases: in vivo
[1] = tested on: barnyardgrass (Echinochloa crus-galli); experiment: Test A preemergence, barnyardgrass; conditions: 0 to 100 scale
Summary of the method: (§1)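 Plants are sown in a loam soil and sand blend, then treated with formulated compound either preemergence by directed soil spray or postemergence at one- to two-leaf stage. After approximately 10 days, injury is judged visually against untreated controls using a 0 to 100 control scale.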

[2] = tested on: foxtail, giant (giant foxtail, Setaria faberii); experiment: Test A preemergence, foxtail, giant; conditions: 0 to 100 scale
Summary of the method: as §1

[3] = tested on: pigweed (Amaranthus retroflexus); experiment: Test A preemergence, pigweed; conditions: 0 to 100 scale
Summary of the method: as §1

[4] = tested on: crabgrass, large (large crabgrass, Digitaria sanguinalis); experiment: Test A preemergence, crabgrass, large; conditions: 0 to 100 scale
Text: (§2) Seeds of plant species selected from bamyardgrass (Echinochloa crus-galli), kochia (Kochia scoparia), ragweed (common ragweed, Ambrosia elatior), ryegrass, Italian (Italian ryegrass, Lolium multiflorum), foxtail, giant (giant foxtail, Setaria faberii), pigweed (Amaranthus retroflexus), crabgrass, large (large crabgrass, Digitaria sanguinalis), momingglory (Ipomoea spp.), velvetleaf (Abutilon theophrasti), wheat (Triticum aestivum), and corn (Zea mays) were planted into a blend of loam soil and sand and treated preemergence with a directed soil spray using test chemicals formulated in a non-phytotoxic solvent mixture which included a surfactant. At the same time, plants selected from these crop and weed species and also blackgrass (Alopecurus myosuroides), and galium (catchweed bedstraw, Galium aparine) were planted in pots containing the same blend of loam soil and sand and treated with postemergence applications of test chemicals formulated in the same manner. Plants ranged in height from 2 to 10 cm and were in the one- to two-leaf stage for the postemergence treatment. Treated plants and untreated controls were maintained in a greenhouse for approximately 10 days, after which time all treated plants were compared to untreated controls and visually evaluated for injury. Plant response ratings, summarized in Table A, are based on a 0 to 100 scale where 0 is no effect and 100 is complete control. A dash (-) response means no test result.

[5] = tested on: morningglory (Ipomoea spp.); experiment: Test A preemergence, morningglory; conditions: 0 to 100 scale
Text: as §2

[6] = tested on: velvetleaf (Abutilon theophrasti); experiment: Test A preemergence, velvetleaf; conditions: 0 to 100 scale
Text: as §2

[7] = tested on: wheat (Triticum aestivum); experiment: Test A preemergence, wheat; conditions: 0 to 100 scale
Text: as §2

corn (Zea mays) [8] = experiment: Test A preemergence, corn; conditions: 0 to 100 scale
Text: as §2

[9] = tested on: barnyardgrass (Echinochloa crus-galli); experiment: Test A postemergence, barnyardgrass; conditions: 0 to 100 scale
Summary of the method: as §1

[10] = tested on: foxtail, giant (giant foxtail, Setaria faberii); experiment: Test A postemergence, foxtail, giant; conditions: 0 to 100 scale
Summary of the method: as §1

[11] = tested on: pigweed (Amaranthus retroflexus); experiment: Test A postemergence, pigweed; conditions: 0 to 100 scale
Summary of the method: as §1

[12] = tested on: crabgrass, large (large crabgrass, Digitaria sanguinalis); experiment: Test A postemergence, crabgrass, large; conditions: 0 to 100 scale
Text: as §2

[13] = tested on: morningglory (Ipomoea spp.); experiment: Test A postemergence, morningglory; conditions: 0 to 100 scale
Text: as §2

[14] = tested on: velvetleaf (Abutilon theophrasti); experiment: Test A postemergence, velvetleaf; conditions: 0 to 100 scale
Text: as §2

[15] = tested on: wheat (Triticum aestivum); experiment: Test A postemergence, wheat; conditions: 0 to 100 scale
Summary of the method: as §1

corn (Zea mays) [16] = experiment: Test A postemergence, corn; conditions: 0 to 100 scale
Summary of the method: as §1

rice (Oryza sativa) = experiment: Test B flooded paddy test, rice; conditions: Flood, 250 g ai/ha; scale of 0 to 100
Summary of the method: (§3)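 First, plants reach the 2-leaf stage; next, pots are flooded to 3 cm and compound is delivered into the water; finally, after 13 to 15 greenhouse days at constant depth, injury is graded visually from 0 to 100 against controls.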

[17] = tested on: sedge, umbrella (small-flower umbrella sedge, Cyperus difformis); experiment: Test B flooded paddy test, sedge, umbrella; conditions: Flood, 250 g ai/ha; scale of 0 to 100
Summary of the method: as §3

[18] = tested on: ducksalad (Heteranthera limosa); experiment: Test B flooded paddy test, ducksalad; conditions: Flood, 250 g ai/ha; scale of 0 to 100
Summary of the method: as §3

[19] = tested on: barnyardgrass (Echinochloa crus-galli); experiment: Test B flooded paddy test, barnyardgrass; conditions: Flood, 250 g ai/ha; scale of 0 to 100
Summary of the method: as §3

Compound | Plant response rating, Barnyardgrass ([1]; 125 g ai/ha) | Plant response rating, Barnyardgrass ([1]; 500 g ai/ha) | Plant response rating, Foxtail, Giant ([2]; 125 g ai/ha) | Plant response rating, Foxtail, Giant ([2]; 500 g ai/ha) | Plant response rating, Pigweed ([3]; 125 g ai/ha) | Plant response rating, Pigweed ([3]; 500 g ai/ha) | Plant response rating, Crabgrass, Large ([4]; 125 g ai/ha) | Plant response rating, Crabgrass, Large ([4]; 500 g ai/ha) | Plant response rating, Morningglory ([5]; 125 g ai/ha) | Plant response rating, Morningglory ([5]; 500 g ai/ha) | Plant response rating, Velvetleaf ([6]; 125 g ai/ha) | Plant response rating, Velvetleaf ([6]; 500 g ai/ha) | Plant response rating, Wheat ([7]; 125 g ai/ha) | Plant response rating, Wheat ([7]; 500 g ai/ha) | Plant response rating, Corn (corn (Zea mays) [8]; 125 g ai/ha) | Plant response rating, Corn (corn (Zea mays) [8]; 500 g ai/ha) | Plant response rating, Barnyardgrass ([9]; 125 g ai/ha) | Plant response rating, Barnyardgrass ([9]; 500 g ai/ha) | Plant response rating, Foxtail, Giant ([10]; 125 g ai/ha) | Plant response rating, Foxtail, Giant ([10]; 500 g ai/ha) | also measured
Cc1ccc(Oc2ncc(Cl)cn2)c(-n2cc(Br)cn2)n1 [Compound 10] | 0 | 0 | 0 | 20 | 0 | 40 | 0 | 50 | 0 | 10 | 0 | 20 | 0 | 0 | 0 | 0 | 0 | 0 | 0 | 0 | Plant response rating, Pigweed ([11]; 125 g ai/ha): 10; Plant response rating, Pigweed ([11]; 500 g ai/ha): 50; Plant response rating, Crabgrass, Large ([12]; 125 g ai/ha): 0; Plant response rating, Crabgrass, Large ([12]; 500 g ai/ha): 10; Plant response rating, Morningglory ([13]; 125 g ai/ha): 0; Plant response rating, Morningglory ([13]; 500 g ai/ha): 10; Plant response rating, Velvetleaf ([14]; 125 g ai/ha): 50; Plant response rating, Velvetleaf ([14]; 500 g ai/ha): 80; Plant response rating, Wheat ([15]; 125 g ai/ha): 0; Plant response rating, Wheat ([15]; 500 g ai/ha): 0; Plant response rating, Corn (corn (Zea mays) [16]; 125 g ai/ha): 0; Plant response rating, Corn (corn (Zea mays) [16]; 500 g ai/ha): 0; Plant response rating, Rice (rice (Oryza sativa)): 0; Plant response rating, Sedge, Umbrella [17]: 0; Plant response rating, Ducksalad [18]: 0; Plant response rating, Barnyardgrass [19]: 0
Cc1cnn(-c2ncccc2Oc2ncc(Cl)cn2)c1 [Compound 3] | 0 | 0 | 0 | 0 | 0 | 10 | 0 | 0 | 0 | 0 | 0 | 0 | 0 | 0 | 0 | 0 | 0 | 10 | 0 | 10 | Plant response rating, Pigweed ([11]; 125 g ai/ha): 10; Plant response rating, Pigweed ([11]; 500 g ai/ha): 40; Plant response rating, Crabgrass, Large ([12]; 125 g ai/ha): 10; Plant response rating, Crabgrass, Large ([12]; 500 g ai/ha): 10; Plant response rating, Morningglory ([13]; 125 g ai/ha): 20; Plant response rating, Morningglory ([13]; 500 g ai/ha): 30; Plant response rating, Velvetleaf ([14]; 125 g ai/ha): 10; Plant response rating, Velvetleaf ([14]; 500 g ai/ha): 20; Plant response rating, Wheat ([15]; 125 g ai/ha): 10; Plant response rating, Wheat ([15]; 500 g ai/ha): 10; Plant response rating, Corn (corn (Zea mays) [16]; 125 g ai/ha): 0; Plant response rating, Corn (corn (Zea mays) [16]; 500 g ai/ha): 10; Plant response rating, Rice (rice (Oryza sativa)): 0; Plant response rating, Sedge, Umbrella [17]: 60; Plant response rating, Ducksalad [18]: 0; Plant response rating, Barnyardgrass [19]: 0
